Source: US11459323B2, “Monocyclic β-lactam compound for treating bacterial infection” (MEDSHINE DISCOVERY INC., priority 2018, dated 2022)
Values after ≈ are worked out from the molar mass of the structure shown. Read-outs that look alike come from different tables or passages of the source.

Key:
[1] = test system: K. pneumoniae ATCC BAA-205 (TEM-1/SHV-1/SHV-12); assay: MIC by micro-liquid dilution method (CLSI); format: cell-based, Klebsiella pneumonia; details: Klebsiella pneumoniae, ATCCBAA205; K. pneumoniae ATCCBAA-205; read-out: MIC
[2] = test system: K. pneumoniae ATCC BAA-1705 (KPC-2); assay: MIC by micro-liquid dilution method (CLSI); format: cell-based, Klebsiella pneumonia; details: Klebsiella pneumoniae, ATCCBAA1705; K. pneumoniae ATCCBAA-1705; read-out: MIC
[3] = test system: K. pneumoniae ATCC BAA-2470 (NDM-1); assay: MIC by micro-liquid dilution method (CLSI); format: cell-based, Klebsiella pneumonia; details: Klebsiella pneumoniae, ATCCBAA2470; K. pneumoniae ATCCBAA-2470; read-out: MIC
[4] = test system: E. coli ATCC BAA-2523 (OXA-48); assay: MIC by micro-liquid dilution method (CLSI); format: cell-based; details: Escherichia coli, ATCCBAA2523
Text: (§1) Three strains of Klebsiella pneumonia, K. pneumoniae ATCC BAA-205 (TEM-1/SHV-1/SHV-12), K. pneumoniae ATCC BAA-1705 (KPC-2), K. pneumoniae ATCC BAA-2470 (NDM-1); three strains of Pseudomonas aeruginosa, P. aeruginosa NCTC13437 (VIM-10; VEB-1), P. aeruginosa PA 14 and P. aeruginosa ATCC 35151; four strains of Escherichia coli, E. coli NCTC 13476 (IMP-1 type), E. coli ATCC BAA-2523 (OXA-48), E. coli MG1655Δtol C, E. coli ATCC 25922; one strain of Acinetobacter baumannii, A. baumannii ATCC 17978 and one strain of Staphylococcus aureus, S. aureus NRS384 were used to determine the minimum inhibitory concentration (MIC) of the compounds by micro-liquid dilution method according to the Institute of Clinical and Laboratory Standard (CLSI) requirements.

E. coli MG1655Δtol C = assay: MIC by micro-liquid dilution method (CLSI); format: cell-based; details: Escherichia coli
Text: as §1

[5] = test system: E. coli NCTC 13476 (IMP-1 type); assay: MIC by micro-liquid dilution method (CLSI); format: cell-based; details: Escherichia coli; E. coli NCTC13476; read-out: MIC
Text: as §1

P. aeruginosa PA 14 = assay: MIC by micro-liquid dilution method (CLSI); format: cell-based; details: Pseudomonas aeruginosa, PA14; P. aeruginosa PA 14; read-out: MIC
Text: as §1

P. aeruginosa ATCC 35151 = assay: MIC by micro-liquid dilution method (CLSI); format: cell-based; details: Pseudomonas aeruginosa
A. baumannii ATCC 17978 = assay: MIC by micro-liquid dilution method (CLSI); format: cell-based; details: Acinetobacter baumannii; A. baumannii ATCC17978; read-out: MIC
E. coli ATCC 25922 = assay: MIC by micro-liquid dilution method (CLSI); format: cell-based; details: Escherichia coli
[6] = test system: Acinetobacter baumannii ATCC 17978; assay: MIC on Acinetobacter baumannii strains; format: cell-based; details: ATCC17978
Text: (§2) Twelve strains of Acinetobacter baumannii, A. baumannii ATCC 17978 (ATCC-BAA-1605, ATCC-BAA-1789, ATCC-BAA-1790, ATCC-BAA-1791, ATCC-BAA-1792, ATCC-BAA-1793, ATCC-BAA-1794, ATCC-BAA-1795, ATCC-BAA-1799, ATCC-BAA-1800, ATCC 19606, ATCC 17978) were used to determine the minimum inhibitory concentration (MIC) of the compounds by micro-liquid dilution method according to the Institute of Clinical and Laboratory Standard (CLSI) requirements.

[7] = test system: Acinetobacter baumannii ATCC 19606; assay: MIC on Acinetobacter baumannii strains; format: cell-based; details: ATCC19606
Text: as §2

[8] = test system: Acinetobacter baumannii ATCC-BAA-1605; assay: MIC on Acinetobacter baumannii strains; format: cell-based; details: ATCCBAA1605, ATCC-BAA-1605, read-out: MIC
Text: as §2

[9] = test system: Acinetobacter baumannii ATCC-BAA-1789; assay: MIC on Acinetobacter baumannii strains; format: cell-based; details: ATCCBAA1789
Text: as §2

[10] = test system: Acinetobacter baumannii ATCC-BAA-1790; assay: MIC on Acinetobacter baumannii strains; format: cell-based; details: ATCCBAA1790, ATCC-BAA-1790, read-out: MIC
Text: as §2

[11] = test system: Acinetobacter baumannii ATCC-BAA-1791; assay: MIC on Acinetobacter baumannii strains; format: cell-based; details: ATCCBAA1791
Text: as §2

[12] = test system: Acinetobacter baumannii ATCC-BAA-1792; assay: MIC on Acinetobacter baumannii strains; format: cell-based; details: ATCCBAA1792, ATCC-BAA-1792, read-out: MIC
Text: as §2

[13] = test system: Acinetobacter baumannii ATCC-BAA-1793; assay: MIC on Acinetobacter baumannii strains; format: cell-based
Text: as §2

[14] = test system: Acinetobacter baumannii ATCC-BAA-1794; assay: MIC on Acinetobacter baumannii strains; format: cell-based; details: ATCCBAA1794, ATCC-BAA-1794, read-out: MIC
Text: as §2

[15] = test system: Acinetobacter baumannii ATCC-BAA-1795; assay: MIC on Acinetobacter baumannii strains; format: cell-based; details: ATCCBAA1795
Text: as §2

[16] = test system: Acinetobacter baumannii ATCC-BAA-1799; assay: MIC on Acinetobacter baumannii strains; format: cell-based; details: ATCCBAA1799, ATCC-BAA-1799, read-out: MIC
Text: as §2

[17] = test system: Acinetobacter baumannii ATCC-BAA-1800; assay: MIC on Acinetobacter baumannii strains; format: cell-based
Text: as §2

[18] = E. coli ATCCBAA-2523, read-out: MIC
[19] = P. aeruginosa ATCC35151, read-out: MIC
[20] = E. coli ATCC25922, read-out: MIC
[21] = ATCCBAA1793, ATCC-BAA-1793, read-out: MIC
[22] = ATCCBAA1800, ATCC-BAA-1800, read-out: MIC

SMILES	MIC [1] [µg/mL]	MIC [2] [µg/mL]	MIC [3] [µg/mL]	MIC [4, 18] [µg/mL]	MIC (E. coli MG1655Δtol C) [µg/mL]	MIC [5] [µg/mL]	MIC (P. aeruginosa PA 14) [µg/mL]	MIC (A. baumannii ATCC 17978) [µg/mL]	MIC [6] [µg/mL]	MIC [7] [µg/mL]	MIC [8] [µg/mL]	MIC [9] [µg/mL]	MIC [10] [µg/mL]	MIC [11] [µg/mL]	MIC [12] [µg/mL]	MIC [13, 21] [µg/mL]	MIC [14] [µg/mL]	MIC [15] [µg/mL]	MIC [16] [µg/mL]	MIC [17, 22] [µg/mL]	other results
CC1(C)[C@H](NC(=O)/C(=N\OCCOc2ccc3c(c2)CCN(CCCNC(=N)N)C3)c2csc(N)n2)C(=O)N1OS(=O)(=O)O [Compound 7]	8 (≈ 12.2 µM)	4 (≈ 6.12 µM)	2 (≈ 3.06 µM)	0.25 (≈ 0.382 µM)	≤ 0.125	1 (≈ 1.53 µM)	16 (≈ 24.5 µM)	1 (≈ 1.53 µM)	2 (≈ 3.06 µM)	8 (≈ 12.2 µM)	8 (≈ 12.2 µM)	8 (≈ 12.2 µM)	8 (≈ 12.2 µM)	2 (≈ 3.06 µM)	8 (≈ 12.2 µM)	4 (≈ 6.12 µM)	4 (≈ 6.12 µM)	4 (≈ 6.12 µM)	8 (≈ 12.2 µM)	4 (≈ 6.12 µM)	MIC (P. aeruginosa ATCC 35151; [19]): 0.5 µg/mL (≈ 0.765 µM); MIC (E. coli ATCC 25922; [20]): 0.5 µg/mL (≈ 0.765 µM)
CC1(C)[C@H](NC(=O)/C(=N\OCCOc2ccc3c(c2)CCN(C(=N)NCCCN)C3)c2csc(N)n2)C(=O)N1OS(=O)(=O)O [Compound 4]	8 (≈ 12.2 µM)	1 (≈ 1.53 µM)	0.5 (≈ 0.765 µM)		≤ 0.125	0.25 (≈ 0.382 µM)	1 (≈ 1.53 µM)	0.5 (≈ 0.765 µM)	0.5 (≈ 0.765 µM)	8 (≈ 12.2 µM)	8 (≈ 12.2 µM)	4 (≈ 6.12 µM)	4 (≈ 6.12 µM)	2 (≈ 3.06 µM)	4 (≈ 6.12 µM)	4 (≈ 6.12 µM)	4 (≈ 6.12 µM)	4 (≈ 6.12 µM)	4 (≈ 6.12 µM)	8 (≈ 12.2 µM)	MIC [4]: ≤ 0.125 µg/mL; MIC (P. aeruginosa ATCC 35151; ATCC35151): ≤ 0.125 µg/mL; MIC (E. coli ATCC 25922; ATCC25922): ≤ 0.125 µg/mL
CC1(C)[C@H](NC(=O)/C(=N\OCCOc2ccc3c(c2)CCN(C(=N)N)C3)c2csc(N)n2)C(=O)N1OS(=O)(=O)O [Compound 3]	8 (≈ 13.4 µM)	4 (≈ 6.7 µM)	2 (≈ 3.35 µM)	0.25 (≈ 0.419 µM)	≤ 0.0039		4 (≈ 6.7 µM)	2 (≈ 3.35 µM)	4 (≈ 6.7 µM)	8 (≈ 13.4 µM)	16 (≈ 26.8 µM)	16 (≈ 26.8 µM)	16 (≈ 26.8 µM)	16 (≈ 26.8 µM)	16 (≈ 26.8 µM)	8 (≈ 13.4 µM)	8 (≈ 13.4 µM)	8 (≈ 13.4 µM)	16 (≈ 26.8 µM)	8 (≈ 13.4 µM)	MIC (P. aeruginosa ATCC 35151; [19]): 0.0625 µg/mL (≈ 0.105 µM); MIC (E. coli ATCC 25922; [20]): 0.25 µg/mL (≈ 0.419 µM)
C[C@@H](O)[C@H]1C(=O)N2C(C(=O)O)=C(SCCN=CN)C[C@H]12 [Imipenem, reference compound]									0.25 (≈ 0.835 µM)	0.5 (≈ 1.67 µM)	32 (≈ 107 µM)	16 (≈ 53.4 µM)	64 (≈ 214 µM)	32 (≈ 107 µM)	64 (≈ 214 µM)		32 (≈ 107 µM)	1 (≈ 3.34 µM)	64 (≈ 214 µM)		MIC ([13]; ATCCBAA1793): 128 µg/mL (≈ 428 µM); MIC ([17]; ATCCBAA1800): 128 µg/mL (≈ 428 µM)
